Measured values as given in patent publication US20110178062A1, “INDOLE AND BENZOTHIOPHENE COMPOUNDS AS MODULATORS OF THE HISTAMINE H3 RECEPTOR” (priority 2007, published 2011).

Molecular target: T1, cloned human H3 receptors, stably expressed in SK-N-MC cells (Homo sapiens, UniProt Q9Y5N1)
T1 construct: expressed in transfected cells; host or cells: SK-N-MC cells
Assay: H3 Receptor Binding (Human)
Protocol: Binding of compounds to the cloned human H3 receptors, stably expressed in SK-N-MC cells, was performed as described by Barbier, A. J. et al. (Br. J. Pharmacol. 2004, 143(5), 649-661). Data for compounds tested in this assay are presented in Table 1 as an average of the results obtained.

[1] = average of the results obtained

T1 sequence (Q9Y5N1 whole entry): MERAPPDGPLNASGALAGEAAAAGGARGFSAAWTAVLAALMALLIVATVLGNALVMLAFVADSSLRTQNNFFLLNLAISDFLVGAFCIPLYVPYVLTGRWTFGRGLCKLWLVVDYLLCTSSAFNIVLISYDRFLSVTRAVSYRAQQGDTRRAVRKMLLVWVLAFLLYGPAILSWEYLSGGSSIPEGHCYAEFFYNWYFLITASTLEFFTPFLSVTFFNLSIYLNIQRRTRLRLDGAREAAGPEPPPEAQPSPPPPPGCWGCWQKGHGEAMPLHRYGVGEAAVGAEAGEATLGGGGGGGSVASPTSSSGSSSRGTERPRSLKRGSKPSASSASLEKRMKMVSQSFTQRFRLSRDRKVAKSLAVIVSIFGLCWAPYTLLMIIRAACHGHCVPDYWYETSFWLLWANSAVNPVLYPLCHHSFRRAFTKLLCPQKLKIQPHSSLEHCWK

Row | Compound | Ki (stated in text for the intermediate of Example 35, Step A) | Ki [1]
1 | CC(C)N1CCN(C(=O)c2ccc3[nH]ccc3c2)CC1 [(1H-Indol-5-yl)-(4-isopropyl-piperazin-1-yl)-methanone] | 97 nM | 
2 | Cn1cc(CN2CCOCC2)c2ccc(C(=O)N3CCN(C4CC4)CC3)cc21 [Example 2, (4-Cyclopropyl-piperazin-1-yl)-(1-methyl-3-morpholin-4-ylmethyl-1H-indol-6-yl)-methanone] |  | 46 nM
3 | O=C(c1ccc2c(CN3CCOCC3)c[nH]c2c1)N1CCCN(C2CC2)CC1 [Example 8, (4-Cyclopropyl-[1,4]diazepan-1-yl)-(3-morpholin-4-ylmethyl-1H-indol-6-yl)-methanone] |  | 1 nM
4 | O=C(c1ccc2c(CN3CCOCC3)c[nH]c2c1)N1CCCN(C2CCC2)CC1 [Example 9, (4-Cyclobutyl-[1,4]diazepan-1-yl)-(3-morpholin-4-ylmethyl-1H-indol-6-yl)-methanone] |  | 1 nM
5 | O=C(NCc1cccnc1)c1ccc2c(CN3CCOCC3)c[nH]c2c1 [Example 10, 3-Morpholin-4-ylmethyl-1H-indole-6-carboxylic acid (pyridin-3-ylmethyl)-amide] |  | 5010 nM
6 | O=C(NCc1ccncc1)c1ccc2c(CN3CCOCC3)c[nH]c2c1 [Example 11, 3-Morpholin-4-ylmethyl-1H-indole-6-carboxylic acid (pyridin-4-ylmethyl)-amide] |  | 228 nM
7 | Cc1cccnc1CNC(=O)c1ccc2c(CN3CCOCC3)c[nH]c2c1 [Example 12, 3-Morpholin-4-ylmethyl-1H-indole-6-carboxylic acid (3-methyl-pyridin-2-ylmethyl)-amide] |  | 2000 nM
8 | O=C(c1ccc2c(CN3CCOCC3)c[nH]c2c1)N1CCc2nc[nH]c2C1 [Example 13, (3-Morpholin-4-ylmethyl-1H-indol-6-yl)-(3,4,6,7-tetrahydro-imidazo[4,5-d]pyridin-5-yl)-methanone] |  | 2000 nM
9 | O=C(c1ccc2c(CN3CCOCC3)c[nH]c2c1)N1CCC(N2CCCC2=O)CC1 [Example 14, 1-[1-(3-Morpholin-4-ylmethyl-1H-indole-6-carbonyl)-piperidin-4-yl]-pyrrolidin-2-one] |  | 609 nM
10 | O=C(NCc1cccnc1)c1ccc2c(CN3CCCCC3)c[nH]c2c1 [Example 15, 3-Piperidin-1-ylmethyl-1H-indole-6-carboxylic acid (pyridin-3-ylmethyl)-amide] |  | 117 nM
11 | O=C(NCc1ccncc1)c1ccc2c(CN3CCCCC3)c[nH]c2c1 [Example 16, 3-Piperidin-1-ylmethyl-1H-indole-6-carboxylic acid (pyridin-4-ylmethyl)-amide] |  | 327 nM
12 | Cc1cccnc1CNC(=O)c1ccc2c(CN3CCCCC3)c[nH]c2c1 [Example 17, 3-Piperidin-1-ylmethyl-1H-indole-6-carboxylic acid (3-methyl-pyridin-2-ylmethyl)-amide] |  | 114 nM
13 | O=C(c1ccc2c(CN3CCCCC3)c[nH]c2c1)N1CCc2nc[nH]c2C1 [Example 18, (3-Piperidin-1-ylmethyl-1H-indol-6-yl)-(3,4,6,7-tetrahydro-imidazo[4,5-c]pyridin-5-yl)-methanone] |  | 5010 nM
14 | O=C(c1ccc2c(CN3CCCCC3)c[nH]c2c1)N1CCC(N2CCCC2=O)CC1 [Example 19, 1-[1-(3-Piperidin-1-ylmethyl-1H-indole-6-carbonyl)-piperidin-4-yl]-pyrrolidin-2-one] |  | 260 nM
15 | CC(C)N1CCN(C(=O)c2cccc3c(CN4CCCCC4)c[nH]c23)CC1 [Example 22, (4-Isopropyl-piperazin-1-yl)-(3-piperidin-1-ylmethyl-1H-indol-7-yl)-methanone] |  | 32 nM
16 | CC(C)N1CCN(C(=O)c2ccc3c(CN4CCCCC4)c[nH]c3c2)CC1 [Example 24, (4-Isopropyl-piperazin-1-yl)-(3-piperidin-1-ylmethyl-1H-indol-6-yl)-methanone] |  | 2 nM
17 | CC(C)N1CCN(C(=O)c2ccc3c(CN4CCOCC4)cn(S(C)(=O)=O)c3c2)CC1 [Example 26, (4-Isopropyl-piperazin-1-yl)-(1-methanesulfonyl-3-morpholin-4-ylmethyl-1H-indol-6-yl)-methanone] |  | 18 nM
18 | CC(C)N1CCN(Cc2c[nH]c3cc(C(=O)N4CCCCC4)ccc23)CC1 [Example 27, [3-(4-Isopropyl-piperazin-1-ylmethyl)-1H-indol-6-yl]-piperidin-1-yl-methanone] |  | 28 nM
19 | O=C(c1ccc2c(CN3CCN(C4CC4)CC3)c[nH]c2c1)N1CCCCC1 [Example 28, [3-(4-Cyclopropyl-piperazin-1-ylmethyl)-1H-indol-6-yl]-piperidin-1-yl-methanone] |  | 177 nM
20 | CC(C)N1CCCN(Cc2c[nH]c3cc(C(=O)N4CCCCC4)ccc23)CC1 [Example 30, [3-(4-Isopropyl-[1,4]diazepan-1-ylmethyl)-1H-indol-6-yl]-piperidin-1-yl-methanone] |  | 26 nM

Row | Compound | Ki (stated in text for the intermediate of Example 35, Step A) | Ki [1]
21 | O=C(c1ccc2c(CN3CCCN(C4CC4)CC3)c[nH]c2c1)N1CCCCC1 [Example 31, [3-(4-Cyclopropyl-[1,4]diazepan-1-ylmethyl)-1H-indol-6-yl]-piperidin-1-yl-methanone] |  | 214 nM
22 | CC(C)N1CCN(C(=O)c2ccc3[nH]cc(CN4CCCCC4)c3c2)CC1 [Example 32, (4-Isopropyl-piperazin-1-yl)-(3-piperidin-1-ylmethyl-1H-indol-5-yl)-methanone] |  | 34 nM
23 | O=C(c1ccc2[nH]cc(CN3CCCCC3)c2c1)N1CCN(C2CCC2)CC1 [Example 33, (4-Cyclobutyl-piperazin-1-yl)-(3-piperidin-1-ylmethyl-1H-indol-5-yl)-methanone] |  | 13 nM
24 | CC(C)N1CCN(C(=O)c2ccc3[nH]cc(CN4CCOCC4)c3c2)CC1 [Example 35, (4-Isopropyl-piperazin-1-yl)-(3-morpholin-4-ylmethyl-1H-indol-5-yl)-methanone] |  | 265 nM
25 | O=C(c1cccc2c(CN3CCN(C4CCC4)CC3)c[nH]c12)N1CCCCC1 [Example 36, [3-(4-Cyclobutyl-piperazin-1-ylmethyl)-1H-indol-7-yl]-piperidin-1-yl-methanone] |  | 81 nM
26 | O=C(c1cccc2[nH]cc(CN3CCN(C4CCC4)CC3)c12)N1CCCCC1 [Example 37, [3-(4-Cyclobutyl-piperazin-1-ylmethyl)-1H-indol-4-yl]-piperidin-1-yl-methanone] |  | 318 nM
27 | O=C(c1ccc2[nH]cc(CN3CCN(C4CCC4)CC3)c2c1)N1CCCCC1 [Example 38, [3-(4-Cyclobutyl-piperazin-1-ylmethyl)-1H-indol-5-yl]-piperidin-1-yl-methanone] |  | 427 nM
28 | CC(C)N1CCN(C(=O)c2cccc3[nH]cc(CN4CCOCC4)c23)CC1 [Example 39, (4-Isopropyl-piperazin-1-yl)-(3-morpholin-4-ylmethyl-1H-indol-4-yl)-methanone] |  | > 10000 nM
29 | O=C(c1ccc2[nH]cc(CN3CCOCC3)c2c1)N1CCN(C2CCC2)CC1 [Example 40, (4-Cyclobutyl-piperazin-1-yl)-(3-morpholin-4-ylmethyl-1H-indol-5-yl)-methanone] |  | 33 nM
30 | O=C(c1cccc2[nH]cc(CN3CCOCC3)c12)N1CCN(C2CCC2)CC1 [Example 41, (4-Cyclobutyl-piperazin-1-yl)-(3-morpholin-4-ylmethyl-1H-indol-4-yl)-methanone] |  | 5000 nM
31 | O=C(c1cccc2[nH]cc(CN3CCCCC3)c12)N1CCN(C2CCC2)CC1 [Example 42, (4-Cyclobutyl-piperazin-1-yl)-(3-piperidin-1-ylmethyl-1H-indol-4-yl)-methanone] |  | 1500 nM
32 | O=C(c1ccc2c(CN3CCN(C4CCC4)CC3)c[nH]c2c1)N1CCC(c2ccccc2)CC1 [Example 43, [3-(4-Cyclobutyl-piperazine-1-ylmethyl)-1H-indol-6-yl]-(4-phenyl-piperidin-1-yl)-methanone] |  | 8 nM
33 | CC(C)N1CCN(C(=O)c2ccc3c(CN4CCN(c5ccccn5)CC4)c[nH]c3c2)CC1 [Example 46, (4-Isopropyl-piperazin-1-yl)-[3-(4-pyridin-2-yl-piperazin-1-ylmethyl)-1H-indol-6-yl]-methanone] |  | 3 nM
34 | CC(=O)N1CCN(Cc2c[nH]c3cc(C(=O)N4CCN(C(C)C)CC4)ccc23)CC1 [Example 48, 1-{4-[6-(4-Isopropyl-piperazine-1-carbonyl)-1H-indol-3-ylmethyl]-piperazin-1-yl}-ethanone] |  | 5 nM
35 | CC(C)N1CCN(C(=O)c2ccc3c(CN4CCN(c5nccs5)CC4)c[nH]c3c2)CC1 [Example 49, (4-Isopropyl-piperazin-1-yl)-[3-(4-thiazol-2-yl-piperazin-1-ylmethyl)-1H-indol-6-yl]-methanone] |  | 7 nM
36 | CC(=O)N1CCCN(Cc2c[nH]c3cc(C(=O)N4CCN(C(C)C)CC4)ccc23)CC1 [Example 50, 1-{4-[6-(4-Isopropyl-piperazine-1-carbonyl)-1H-indol-3-ylmethyl]-[1,4]diazepam-1-yl}-ethanone] |  | 3 nM
37 | CC(C)N1CCN(C(=O)c2ccc3c(CN4CCN(Cc5ccccc5)CC4)c[nH]c3c2)CC1 [Example 51, [3-(4-Benzyl-piperazin-1-ylmethyl)-1H-indol-6-yl]-(4-isopropyl-piperazin-1-yl)-methanone] |  | 2 nM
38 | CC(C)N1CCN(C(=O)c2ccc3c(CN4CCN(c5ccc(-c6ccccc6)cc5)CC4)c[nH]c3c2)CC1 [Example 52, [3-(4-Biphenyl-4-yl-piperazin-1-ylmethyl)-1H-indol-6-yl]-(4-isopropyl-piperazin-1-yl)-methanone] |  | 12 nM
39 | CC(C)N1CCN(C(=O)c2ccc3c(CN4CCN(C(c5ccccc5)c5ccccc5)CC4)c[nH]c3c2)CC1 [Example 53, [3-(4-Benzydryl-piperazin-1-ylmethyl)-1H-indol-6-yl]-(4-isopropyl-piperazin-1-yl)-methanone] |  | 19 nM
40 | CC(C)N1CCN(C(=O)c2ccc3c(CN4CCN(S(C)(=O)=O)CC4)c[nH]c3c2)CC1 [Example 54, (4-Isopropyl-piperazin-1-yl)-[3-(4-methanesulfonyl-piperazin-1-ylmethyl)-1H-indol-6-yl]-methanone] |  | 12 nM
